Reference: US20090281054A1, “COMPOSITIONS AND METHODS COMPRISING CAPURAMYCIN ANALOGUES” (priority 2008, published 2009)
In brackets after ≈: the same amount, converted by molar mass. Like-named read-outs stand apart in the source and are kept apart here.

Columns and labels:
[1] = test system: M. avium complex (MAC); test: MIC by microdilution method in 7H9 broth; type: cell-based; settings: for MIC90: value in square brackets
[2] = test system: M. abscessus (MAB; ATCC 700869); test: MIC by microdilution method in 7H9 broth; type: cell-based; settings: MAB 700869
[3] = test system: M. kansaii (MKN; ATCC12478 & 35775); test: MIC by microdilution method in 7H9 broth; type: cell-based, M. kansasii
[4] = test system: M. smegmatis (MSMG; MC2155); test: MIC by microdilution method in 7H9 broth; type: cell-based; settings: MSMG MC^2155, 72 hr
[5] = test system: MTB in J774A.1 cells; test: Intracellular activity of SQ641 with efflux pump blockers; type: cell-based, Mycobacterium tuberculosis; settings: J774A.1 cells; VE and CsA at 10 μM
[6] = target: translocase I (Escherichia coli, UniProt P0A6W3); test: IC50 against translocase I; type: biochemical
Sequence of translocase I (P0A6W3 whole entry): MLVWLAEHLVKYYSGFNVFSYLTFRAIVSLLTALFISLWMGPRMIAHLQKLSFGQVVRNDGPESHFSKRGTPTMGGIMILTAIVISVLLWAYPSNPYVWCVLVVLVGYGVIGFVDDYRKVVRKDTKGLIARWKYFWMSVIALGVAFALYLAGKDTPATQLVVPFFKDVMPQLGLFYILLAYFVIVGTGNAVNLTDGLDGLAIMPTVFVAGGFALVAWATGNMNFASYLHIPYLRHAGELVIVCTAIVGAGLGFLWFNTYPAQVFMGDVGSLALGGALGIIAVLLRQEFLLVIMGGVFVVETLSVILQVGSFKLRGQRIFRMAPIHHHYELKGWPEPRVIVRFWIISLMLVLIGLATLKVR

[7] = test system: MAC; test: Synergy by checkerboard titration (microdilution); type: cell-based, M. avium complex; settings: for MIC Combination: combination SQ641 + CLA; for MIC: Mycobacterium avium, drug alone
[8] = Mycobacterium avium, 336 h, MAC isolates, 2 wk, read-out: MIC (range)
[9] = Mycobacterium avium, MAC strain 100, read-out: MIC
[10] = Mycobacterium avium, MAC strain 101, read-out: MIC
[11] = Mycobacterium avium, MAC strain 104, read-out: MIC
[12] = Mycobacterium avium, MAC strain 109, read-out: MIC
[13] = Mycobacterium avium, MAC strain A5, read-out: MIC
[14] = Mycobacterium avium, MAC strain JSH1, read-out: MIC
[15] = Mycobacterium avium, MAC strain NIH C1-1, read-out: MIC
[16] = Mycobacterium avium, MAC strain NIH C1-2, read-out: MIC
[17] = Mycobacterium avium, MAC strain NIH C1-3, read-out: MIC
[18] = Mycobacterium avium, MAC strain NIH C1-4, read-out: MIC
[19] = Mycobacterium avium, MAC isolates, read-out: MIC90
[20] = Mycobacteroides abscessus, ATCC700869, read-out: MIC
[21] = Mycobacterium kansasii, ATCC 12478 / ATCC 35775, MKN ATCC35775, read-out: MIC
[22] = Mycobacterium kansasii, MKN ATCC12478, read-out: MIC
[23] = Mycolicibacterium smegmatis, MC2155|MC^2155, read-out: MIC

In the case of `O=C(O)c1cn(C2CC2)c2cc(N3CCNCC3)c(F)cc2c1=O` [CIP, reference compound], the “MIC range” value ([1]; MAC isolates, 2 wk) is reported as 0.125 to 32 µg/mL, the MIC90 ([1]; MAC isolates) is reported as 2 µg/mL (≈ 6.04 µM) and the MIC [2] is reported as over 32 µg/mL. The MIC ([3]; MKN ATCC12478) was 2 µg/mL (≈ 6.04 µM), the MIC ([3]; MKN ATCC35775) was 0.25 µg/mL (≈ 0.754 µM) and the MIC [4] was 0.5 µg/mL (≈ 1.51 µM).

In the case of `Cc1ccc(C)c(OCCCC(C)(C)C(=O)O)c1` [GF, gemfibrozil, reference compound], the “Effect of efflux pump blocker on intracellular activity of SQ641 against MTB” value [5] is reported as “only moderate effects”.

`CO[C@H]1[C@@H](O)[C@H](n2ccc(=O)[nH]c2=O)O[C@@H]1[C@@H](O[C@H]1OC(C(=O)Nc2ccc(F)c(F)c2F)=C[C@H](O)[C@@H]1O)C(N)=O` [RKS2235] showed an IC50 [6] of 17 nM, an MIC [1, 8] of 1 to 8 µg/mL (≈ 1.7 to 13.6 µM) and an MIC [1, 9] of 2 µg/mL (≈ 3.4 µM). The MIC [1, 10] was 1 µg/mL (≈ 1.7 µM), the MIC [1, 11] was 1 µg/mL (≈ 1.7 µM) and the MIC [1, 12] was 1 µg/mL (≈ 1.7 µM). It also gave an MIC [1, 13] of 1 µg/mL (≈ 1.7 µM), an MIC [1, 14] of 2 µg/mL (≈ 3.4 µM) and an MIC [1, 15] of 4 µg/mL (≈ 6.8 µM). For the same molecule, the MIC [1, 16] was 2 µg/mL (≈ 3.4 µM), the MIC [1, 17] was 8 µg/mL (≈ 13.6 µM) and the MIC [1, 18] was 2 µg/mL (≈ 3.4 µM). For the same molecule, the MIC90 [1, 19] was 4 µg/mL (≈ 6.8 µM), the MIC [2, 20] was 16 µg/mL (≈ 27.2 µM) and the MIC [3, 21] was 2 µg/mL (≈ 3.4 µM). For the same molecule, the MIC [3, 22] was over 32 µg/mL and the MIC [4, 23] was 4 µg/mL (≈ 6.8 µM).

In the case of `CO[C@H]1[C@@H](O)[C@H](n2ccc(=O)[nH]c2=O)O[C@@H]1[C@@H](O[C@H]1OC(C(=O)Nc2ccc([N+](=O)[O-])cc2)=C[C@H](O)[C@@H]1O)C(N)=O` [RKS2243], the IC50 [6] is reported as 6.9 nM, the MIC [1, 8] is reported as 0.5 to 8 µg/mL (≈ 0.863 to 13.8 µM) and the MIC [1, 9] is reported as 1 µg/mL (≈ 1.73 µM). The MIC [1, 10] was 1 µg/mL (≈ 1.73 µM), the MIC [1, 11] was 1 µg/mL (≈ 1.73 µM) and the MIC [1, 12] was 0.5 µg/mL (≈ 0.863 µM). The MIC [1, 13] was 0.5 µg/mL (≈ 0.863 µM), the MIC [1, 14] was 1 µg/mL (≈ 1.73 µM) and the MIC [1, 15] was 4 µg/mL (≈ 6.9 µM). For the same molecule, the MIC [1, 16] was 1 µg/mL (≈ 1.73 µM), the MIC [1, 17] was 8 µg/mL (≈ 13.8 µM) and the MIC [1, 18] was 1 µg/mL (≈ 1.73 µM). The MIC90 [1, 19] was 4 µg/mL (≈ 6.9 µM), the MIC [2, 20] was over 32 µg/mL and the MIC [3, 21] was 2 µg/mL (≈ 3.45 µM). It also gave an MIC [3, 22] of 32 µg/mL (≈ 55.2 µM) and an MIC [4, 23] of 4 µg/mL (≈ 6.9 µM).

In the case of `CO[C@H]1[C@@H](O)[C@H](n2ccc(=O)[nH]c2=O)O[C@@H]1[C@@H](O[C@H]1OC(C(=O)Nc2cccc(F)c2)=C[C@H](O)[C@@H]1O)C(N)=O` [RKS2186], the “IC50 against translocase I” value [6] is reported as 0.01 µg/mL (≈ 0.0181 µM), the MIC [1, 9] is reported as 2 µg/mL (≈ 3.62 µM) and the MIC [1, 10] is reported as 2 µg/mL (≈ 3.62 µM). The MIC [1, 11] was 1 µg/mL (≈ 1.81 µM), the MIC [1, 12] was 1 µg/mL (≈ 1.81 µM) and the MIC [1, 13] was 1 µg/mL (≈ 1.81 µM). It also gave an MIC [1, 14] of 4 µg/mL (≈ 7.24 µM), an MIC [1, 15] of 8 µg/mL (≈ 14.5 µM) and an MIC [1, 16] of 2 µg/mL (≈ 3.62 µM). For the same molecule, the MIC [1, 17] was 8 µg/mL (≈ 14.5 µM), the MIC [1, 18] was 2 µg/mL (≈ 3.62 µM) and the MIC90 [1, 19] was 8 µg/mL (≈ 14.5 µM). The MIC [2, 20] was 16 µg/mL (≈ 29 µM), the MIC [3, 21] was 4 µg/mL (≈ 7.24 µM) and the MIC [3, 22] was over 32 µg/mL. The MIC [4, 23] was 4 µg/mL (≈ 7.24 µM).

`CCCN(CCC)S(=O)(=O)c1ccc(C(=O)O)cc1` [PB, probenecid, reference compound] was tested, and the “Effect of efflux pump blocker on intracellular activity of SQ641 against MTB” value [5] was “only moderate effects”.

In the case of `CC[C@H]1OC(=O)[C@H](C)[C@@H](O[C@H]2C[C@@](C)(OC)[C@@H](O)[C@H](C)O2)[C@H](C)[C@@H](O[C@@H]2O[C@H](C)C[C@H](N(C)C)[C@H]2O)[C@](C)(OC)C[C@@H](C)C(=O)[C@H](C)[C@@H](O)[C@]1(C)O` [CLA, clarithromycin, reference compound], the MIC [1, 8] is reported as 0.062 to 32 µg/mL (≈ 0.0829 to 42.8 µM), the MIC [1, 9] is reported as 0.25 µg/mL (≈ 0.334 µM) and the MIC [1, 10] is reported as 0.125 µg/mL (≈ 0.167 µM). The MIC [1, 11] was 0.5 µg/mL (≈ 0.668 µM), the MIC [1, 12] was 0.062 µg/mL (≈ 0.0829 µM) and the MIC [1, 13] was 0.125 µg/mL (≈ 0.167 µM). For the same molecule, the MIC [1, 14] was 2 µg/mL (≈ 2.67 µM), the MIC [1, 15] was 1 µg/mL (≈ 1.34 µM) and the MIC [1, 16] was 0.25 µg/mL (≈ 0.334 µM). For the same molecule, the MIC [1, 17] was 32 µg/mL (≈ 42.8 µM), the MIC [1, 18] was 1 µg/mL (≈ 1.34 µM) and the MIC90 [1, 19] was 2 µg/mL (≈ 2.67 µM). For the same molecule, the MIC [2, 20] was over 32 µg/mL, the MIC [3, 21] was 0.25 µg/mL (≈ 0.334 µM) and the MIC [3, 22] was 0.25 µg/mL (≈ 0.334 µM). For the same molecule, the “MIC Combination” value ([7]; MAC A5) was 0.031 µg/mL, the “MIC Combination” value ([7]; MAC JSH1) was 1 µg/mL and the “MIC Combination” value ([7]; MAC NIH C1-1) was 2.0 µg/mL. It also gave an MIC ([7]; MAC A5) of 0.125 µg/mL, an MIC ([7]; MAC JSH1) of 1 µg/mL and an MIC ([7]; MAC NIH C1-1) of 2 µg/mL. The MIC [4, 23] was 2 µg/mL (≈ 2.67 µM).
